{"source": "paper PMC3723878", "about": "(PLoS ONE, 2013)", "assay_in_all_cases": "Saturation binding of ^125I-HEAT", "key": {"[1]": {"molecular_target": "T1, human α1A-AR WT (Homo sapiens, UniProt P35348)", "T1 construct": "expressed in transfected cells; host or cells: COS-7, transient (calcium phosphate)", "T1 sequence (P35348 1-466)": "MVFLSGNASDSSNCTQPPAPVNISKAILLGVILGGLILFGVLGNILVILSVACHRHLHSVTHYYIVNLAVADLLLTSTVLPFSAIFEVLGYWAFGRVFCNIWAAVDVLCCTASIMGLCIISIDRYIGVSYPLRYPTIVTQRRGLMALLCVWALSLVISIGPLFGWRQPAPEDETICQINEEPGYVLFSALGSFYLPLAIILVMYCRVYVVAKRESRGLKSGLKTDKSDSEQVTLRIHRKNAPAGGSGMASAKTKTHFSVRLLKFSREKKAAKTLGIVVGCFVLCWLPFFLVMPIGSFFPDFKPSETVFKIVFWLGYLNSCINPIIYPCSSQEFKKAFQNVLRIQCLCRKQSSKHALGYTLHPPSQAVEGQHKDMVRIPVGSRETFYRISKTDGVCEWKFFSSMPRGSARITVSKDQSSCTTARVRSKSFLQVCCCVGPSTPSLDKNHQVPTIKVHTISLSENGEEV", "description": "(§1) α1A-AR cDNA inserted in the prK5 vector was kindly provided by Michael Brownstein (Craig Venter Institute, Rockville, MD). Point mutations were introduced into the α1A-AR gene by sense and antisense primers (Sigma-Aldrich, St Quentin-Fallavier, France) containing the desired changes, using the QuikChange Site-Directed Mutagenesis kit. The incorporation of each mutation was verified by DNA sequencing.\n(§2) CHO cells stably expressing α1-ARs were kindly provided by Dr. Hervé Paris (INSERM U858, Toulouse, France) and were grown in a 50∶50 Dulbecco's Modified Eagle's Medium (DMEM)/Ham's F12 medium supplemented with 10% (v/v) foetal bovine serum (FBS), glutamine (2 mM), penicillin (100 units/ml) and streptomycin (100 µg/ml) at 37°C with 5% CO2. COS-7 cells were grown at 37°C under 5% CO2 in Dulbecco's modified Eagle's medium containing 10% fetal calf serum, 1% penicillin and 1% glutamine (Sigma-Aldrich, St Quentin-Fallavier, France). At 80% confluence, the cells were transfected using a calcium phosphate precipitation method for transient expression of the genetic construct. After 48 h incubation at 37°C, cells were harvested and the membranes were prepared as follow. Cells were washed with ice-cold phosphate buffer and centrifuged at 1700 g for 10 min (4°C). The pellet was suspended in ice-cold buffer (1 mM EDTA, 25 mM sodium phosphate, and 5 mM MgCl2, pH 7.4) and homogenized using an Potter-Elvehjem homogenizer (Fisher Scientific Labosi, Elancourt, France). The homogenate was centrifuged at 1700 g for 15 min (4°C). The sediment was resuspended in buffer, homogenized, and centrifuged at 1700 g for 15 min (4°C). The combined supernatants were centrifuged at 35,000 g for 30 min (4°C), and the pellet was suspended in the same buffer (0.1 ml/dish). […] Cells were grown in a 50∶50 Dulbecco's Modified Eagle's Medium (DMEM)/Ham's F12 medium supplemented with 10% (v/v) foetal bovine serum (FBS), glutamine (2 mM), penicillin (100 units/ml) and streptomycin (100 µg/ml) at 37°C with 5% CO2. Media was changed every 2–3 days and cells were passaged when confluent with 0.05% trypsin and 0.02% EDTA.\n(§3) Binding experiments were performed in a 100 µL reaction mix at room temperature in buffer composed of 50 mM Tris-HCl, pH 7.4, 10 mM MgCl2, 1 g/L BSA. Reactions were stopped by filtration through 96 GF/C filter plates pre-incubated with 0.5% polyethylenimine.\n(§4) Binding data were analyzed by nonlinear regression using the KaleidaGraph 4.0 software (Synergy software, Reading, PA). pKD values and Bmax (number of binding sites) were determined by applying a nonlinear regression to data obtained with saturation binding assays. The nonlinear regression used was BS = (Bmax*A)/KD+A, where BS is the specific binding, Bmax the number of binding sites, A the concentration of radioligand, and KD the dissociation constant of the radioligand. Data resulting from competition binding assays were analyzed using the Hill equation for IC50 and curve slope estimations. […] The linear curves were analyzed with IC50 = Ki+(L/KD)*Ki. Dissociation kinetics were analyzed using a simple equation of exponential decay BS * exp (-Koff*t), where BS is the specific binding at time zero and Koff is the dissociation rate constant. Results are expressed as mean ± s.e. mean from n independent experiments. One-way Anova test was used to compare values. A p<0.05 was accepted for statistical significance."}, "[2]": {"molecular_target": "T2, human α1A-AR F281A variant (Homo sapiens, UniProt P35348, F281A)", "T2 construct": "expressed in transfected cells; host or cells: COS-7, transient (calcium phosphate)", "T2 sequence (P35348 1-466 F281A)": "T1 sequence (P35348 1-466) with F281A", "description": "as §1, §2, §3, §4"}, "[3]": {"molecular_target": "T3, human α1A-AR F312A variant (Homo sapiens, UniProt P35348, F312A)", "T3 construct": "expressed in transfected cells; host or cells: COS-7 (transient, calcium phosphate), membranes", "T3 sequence (P35348 1-466 F312A)": "T1 sequence (P35348 1-466) with F312A", "description": "as §1, §2, §3, §4"}}, "note": "Numbering of substitutions follows the chain as printed."}
{"smiles": "O=C1c2ccccc2CCC1CNCCc1ccc(O)c([125I])c1", "note": "(stereo not drawn) [125I-HEAT]", "values": [{"measurement": "^125I-HEAT Ratio (affinity relative to WT)", "setting": "[1]", "value": 1}, {"measurement": "^125I-HEAT pKd", "setting": "[1]; saturation binding, n = 3–6", "value": "10.05±0.14"}, {"measurement": "^125I-HEAT Ratio (loss of affinity relative to WT)", "setting": "[2]; F281A", "value": 3.9}, {"measurement": "^125I-HEAT pKd", "setting": "[2]; F281A (6.44), saturation binding, n = 3–6", "value": "9.46±0.09"}, {"measurement": "^125I-HEAT Ratio (loss of affinity relative to WT)", "setting": "[3]; F312A", "value": 0.44}, {"measurement": "^125I-HEAT pKd", "setting": "[3]; F312A (7.39), saturation binding, n = 3–6", "value": "10.40±0.10"}]}
